{"source": "patent US20240041386A1", "about": "“MICROCHIP BASED RECORDING OF NEUROVASCULAR ACTIVITY AND BEHAVIOR” (NEUREFLECT, INC., priority 2021, published 2024)", "system": "cortical spreading depression (CSD)", "assay": "Optically triggered cortical spreading depression (CSD) threshold in mice with skull-attached microchip", "assay_type": "in vivo", "details": "Thy1/ChR2 mice under isoflurane anesthesia, compared with the wake state; data not shown", "procedure": "Cortical spreading depression (CSD) in freely behaving mice was triggered optically by administering sequential pulses of light with increasing duration until CSD was observed based on OIS. After each light pulse, OIS was monitored for at least 10 minutes for the occurrence of CSD. If CSD occurred, no further stimulus pulses were delivered, whereas if no CSD occurred, then the duration was increased with the subsequent pulse. To trigger CSD under anesthesia, the cage that the animal was housed in was rapidly flushed with 2% isoflurane in a 20/80% O2/N2 gas mixture. After the animal lost consciousness, the isoflurane was reduced to 1.5% to sustain anesthesia. For prolonged experiments a heating pad set at 37° C. was placed under the cage and a small paper blanket was placed over the animal to maintain its core temperature. Breathing pattern and paw color were continuously monitored. Anesthesia was maintained until CBV returned to baseline levels at the end of the CSD. […] After each light pulse, OIS was monitored for a t least 10 minutes for a CSD, If CSD occurred, no further pulses were delivered. If a baseline threshold was well determined, stimulations were started 3-4 steps before that baseline for subsequent CSDs. […] These measurements illustrate that threshold for optically triggering CSD can be quantified based upon the duration of light stimulation required to evoke CSD. […]"}
{"smiles": "FC(F)OC(Cl)C(F)(F)F", "note": "(stereo not shown) [isoflurane]", "values": [{"measurement": "threshold for triggering CSD (duration of blue light stimulation required to evoke CSD)", "value": "significantly lower than in the wake state"}]}
